Assay results from patent US9707229B2, “Compositions and methods for treating an infection” (CMPD LICENSING, LLC, priority 2015, dated 2017).

Tests used:
Assay type in all cases: cell-based
Klebsiella pneumoniae = test: Expected efficacy of antibiotic agents; details: Gram: neg
Chlamydia psittaci = details: expected efficacy; Gram: n/a
Mycoplasma pneumoniae = test: Expected efficacy of antibiotic agents; details: Gram: n/a
Vibrio cholerae = test: Expected efficacy of antibiotic agents; details: Gram: neg
Bacteroides fragilis = test: Expected efficacy of antibiotic agents; details: Gram: anaer
Providencia stuartii = test: Expected efficacy of antibiotic agents; details: Gram: neg
Clostridium difficile = test: Expected efficacy of antibiotic agents; details: Gram: anaer
Serratia marcescens = test: Expected efficacy of antibiotic agents; details: Gram: neg
[1] = test system: Staphylococcus aureus (MSSA); test: Expected efficacy of antibiotic agents; details: Gram: pos
Brucella species = details: expected efficacy; Gram: neg
Peptostreptococcus = test: Expected efficacy of antibiotic agents; details: Gram: pos
Enterococcus faecium = test: Expected efficacy of antibiotic agents; details: Gram: pos
Corynebacterium jeikeium = test: Expected efficacy of antibiotic agents; details: Gram: pos
Enterobacter aerogenes = test: Expected efficacy of antibiotic agents; details: Gram: neg
Pseudomonas fluorescens = test: Expected efficacy of antibiotic agents; details: Gram: neg
Chlamydia trachomatis = test: Expected efficacy of antibiotic agents; details: Gram: n/a
Providencia rettgeri = test: Expected efficacy of antibiotic agents; details: Gram: neg
Neisseria meningitidis = test: Expected efficacy of antibiotic agents; details: Gram: neg
Proteus vulgaris = test: Expected efficacy of antibiotic agents; details: Gram: neg
Neisseria gonorrhoeae = test: Expected efficacy of antibiotic agents; details: Gram: neg
[2] = test system: Haemophilus parainfluenzae; test: Expected efficacy of antibiotic agents; details: Gram: neg
Klebsiella oxytoca = test: Expected efficacy of antibiotic agents; details: Gram: neg
Chlamydia pneumoniae = test: Expected efficacy of antibiotic agents; details: Gram: n/a
Streptococcus pneumoniae = test: Expected efficacy of antibiotic agents; details: Gram: pos
Escherichia coli = test: Expected efficacy of antibiotic agents; details: Gram: neg
[3] = test system: Staphylococcus epidermidis; test: Expected efficacy of antibiotic agents; details: Gram: pos
Enterobacter sakazakii = test: Expected efficacy of antibiotic agents; details: Gram: neg
Proteus mirabilis = test: Expected efficacy of antibiotic agents; details: Gram: neg
Streptococcus pyogenes = test: Expected efficacy of antibiotic agents; details: Gram: pos
Streptococcus agalactiae = test: Expected efficacy of antibiotic agents; details: Gram: pos
Enterobacter cloacae = test: Expected efficacy of antibiotic agents; details: Gram: neg
Bordetella pertussis = test: Expected efficacy of antibiotic agents; details: Gram: neg
Moraxella catarrhalis = test: Expected efficacy of antibiotic agents; details: Gram: neg
[4] = test system: Klebsiella (Calymmatobacterium) granulomatis; test: Expected efficacy of antibiotic agents; details: Gram: neg
[5] = test system: Viridans group streptococci; test: Expected efficacy of antibiotic agents; details: Gram: pos
Enterococcus faecalis = test: Expected efficacy of antibiotic agents; details: Gram: pos
Diphtheroids = test: Expected efficacy of antibiotic agents; details: Gram: pos
Legionella pneumophila = details: expected efficacy; Gram: neg
[6] = test system: Corynebacterium urealyticum; test: Expected efficacy of antibiotic agents; details: Gram: pos
Pseudomonas aeruginosa = test: Expected efficacy of antibiotic agents; details: Gram: neg
[7] = test system: Methicillin resistant staph aureus (MRSA); test: Expected efficacy of antibiotic agents; details: Gram: pos
Clostridium perfringens = details: expected efficacy; Gram: anaer
Acinetobacter baumannii = test: Expected efficacy of antibiotic agents; details: Gram: neg
[8] = test system: Acinetobacter calcoaceticus; test: Expected efficacy of antibiotic agents; details: Gram: neg
Shigella sonnei = test: Expected efficacy of antibiotic agents; details: Gram: neg
Haemophilus influenzae = test: Expected efficacy of antibiotic agents; details: Gram: neg
Haemophilus ducreyi = test: Expected efficacy of antibiotic agents; details: Gram: neg
Acinetobacter lwoffii = test: Expected efficacy of antibiotic agents; details: Gram: neg
Shigella dysenteriae = test: Expected efficacy of antibiotic agents; details: Gram: neg
Yersinia pestis = details: expected efficacy; Gram: neg
Citrobacter diversus = test: Expected efficacy of antibiotic agents; details: Gram: neg
Campylobacter jejuni = test: Expected efficacy of antibiotic agents; details: Gram: neg
Citrobacter freundii = test: Expected efficacy of antibiotic agents; details: Gram: neg
Shigella flexneri = test: Expected efficacy of antibiotic agents; details: Gram: neg
Shigella boydii = test: Expected efficacy of antibiotic agents; details: Gram: neg

Compound: Colistimethate
- efficacy against Klebsiella pneumoniae (Klebsiella pneumoniae): yes
- efficacy against Chlamydia psittaci (Chlamydia psittaci): no
- efficacy against Mycoplasma pneumoniae (Mycoplasma pneumoniae): no
- efficacy against Vibrio cholerae (Vibrio cholerae): no
- efficacy against Bacteroides fragilis (Bacteroides fragilis): no
- efficacy against Providencia stuartii (Providencia stuartii): no
- efficacy against Clostridium difficile (Clostridium difficile): no
- efficacy against Serratia marcescens (Serratia marcescens): no
- efficacy against Staphylococcus aureus (MSSA) [1]: no
- efficacy against Brucella species (Brucella species): no
- efficacy against Peptostreptococcus (Peptostreptococcus): no
- efficacy against Enterococcus faecium (Enterococcus faecium): no
- efficacy against Corynebacterium jeikeium (Corynebacterium jeikeium): no
- efficacy against Enterobacter aerogenes (Enterobacter aerogenes): yes
- efficacy against Pseudomonas fluorescens (Pseudomonas fluorescens): yes
- efficacy against Chlamydia trachomatis (Chlamydia trachomatis): no
- efficacy against Providencia rettgeri (Providencia rettgeri): no
- efficacy against Neisseria meningitidis (Neisseria meningitidis): no
- efficacy against Proteus vulgaris (Proteus vulgaris): no
- efficacy against Neisseria gonorrhoeae (Neisseria gonorrhoeae): no
- efficacy against Haemophilus parainfluenzae [2]: no
- efficacy against Klebsiella oxytoca (Klebsiella oxytoca): yes
- efficacy against Chlamydia pneumoniae (Chlamydia pneumoniae): no
- efficacy against Streptococcus pneumoniae (Streptococcus pneumoniae): no
- efficacy against Escherichia coli (Escherichia coli): yes
- efficacy against Staphylococcus epidermidis [3]: no
- efficacy against Enterobacter sakazakii (Enterobacter sakazakii): yes
- efficacy against Proteus mirabilis (Proteus mirabilis): no
- efficacy against Streptococcus pyogenes (Streptococcus pyogenes): no
- efficacy against Streptococcus agalactiae (Streptococcus agalactiae): no
- efficacy against Enterobacter cloacae (Enterobacter cloacae): yes
- efficacy against Bordetella pertussis (Bordetella pertussis): no
- efficacy against Moraxella catarrhalis (Moraxella catarrhalis): no
- efficacy against Klebsiella (Calymmatobacterium) granulomatis [4]: yes
- efficacy against Viridans group streptococci [5]: no
- efficacy against Enterococcus faecalis (Enterococcus faecalis): no
- efficacy against Diphtheroids (Diphtheroids): no
- efficacy against Legionella pneumophila (Legionella pneumophila): no
- efficacy against Corynebacterium urealyticum [6]: no
- efficacy against Pseudomonas aeruginosa (Pseudomonas aeruginosa): yes
- efficacy against Methicillin resistant staph aureus (MRSA) [7]: no

Compound: NC[C@H]1O[C@H](O[C@H]2[C@H](O)[C@@H](O[C@H]3O[C@H](CO)[C@@H](O)[C@H](N)[C@H]3O)[C@H](N)C[C@@H]2N)[C@H](N)C[C@@H]1O [Tobramycin]
- efficacy against Clostridium perfringens (Clostridium perfringens): no
- efficacy against Klebsiella pneumoniae (Klebsiella pneumoniae): yes
- efficacy against Chlamydia psittaci (Chlamydia psittaci): no
- efficacy against Mycoplasma pneumoniae (Mycoplasma pneumoniae): no
- efficacy against Acinetobacter baumannii (Acinetobacter baumannii): no
- efficacy against Vibrio cholerae (Vibrio cholerae): no
- efficacy against Acinetobacter calcoaceticus [8]: no
- efficacy against Bacteroides fragilis (Bacteroides fragilis): no
- efficacy against Clostridium difficile (Clostridium difficile): no
- efficacy against Shigella sonnei (Shigella sonnei): yes
- efficacy against Serratia marcescens (Serratia marcescens): yes
- efficacy against Haemophilus influenzae (Haemophilus influenzae): yes
- efficacy against Staphylococcus aureus (MSSA) [1]: no
- efficacy against Haemophilus ducreyi (Haemophilus ducreyi): yes
- efficacy against Peptostreptococcus (Peptostreptococcus): no
- efficacy against Enterococcus faecium (Enterococcus faecium): no
- efficacy against Corynebacterium jeikeium (Corynebacterium jeikeium): no
- efficacy against Enterobacter aerogenes (Enterobacter aerogenes): yes
- efficacy against Pseudomonas fluorescens (Pseudomonas fluorescens): yes
- efficacy against Acinetobacter lwoffii (Acinetobacter lwoffii): no
- efficacy against Chlamydia trachomatis (Chlamydia trachomatis): no
- efficacy against Neisseria meningitidis (Neisseria meningitidis): no
- efficacy against Proteus vulgaris (Proteus vulgaris): yes
- efficacy against Shigella dysenteriae (Shigella dysenteriae): yes
- efficacy against Neisseria gonorrhoeae (Neisseria gonorrhoeae): no
- efficacy against Klebsiella oxytoca (Klebsiella oxytoca): yes
- efficacy against Yersinia pestis (Yersinia pestis): yes
- efficacy against Chlamydia pneumoniae (Chlamydia pneumoniae): no
- efficacy against Streptococcus pneumoniae (Streptococcus pneumoniae): no
- efficacy against Escherichia coli (Escherichia coli): yes
- efficacy against Citrobacter diversus (Citrobacter diversus): yes
- efficacy against Staphylococcus epidermidis [3]: no
- efficacy against Enterobacter sakazakii (Enterobacter sakazakii): yes
- efficacy against Proteus mirabilis (Proteus mirabilis): yes
- efficacy against Streptococcus pyogenes (Streptococcus pyogenes): no
- efficacy against Streptococcus agalactiae (Streptococcus agalactiae): no
- efficacy against Enterobacter cloacae (Enterobacter cloacae): yes
- efficacy against Bordetella pertussis (Bordetella pertussis): no
- efficacy against Moraxella catarrhalis (Moraxella catarrhalis): yes
- efficacy against Campylobacter jejuni (Campylobacter jejuni): yes
- efficacy against Citrobacter freundii (Citrobacter freundii): yes
- efficacy against Shigella flexneri (Shigella flexneri): yes
- efficacy against Klebsiella (Calymmatobacterium) granulomatis [4]: yes
- efficacy against Viridans group streptococci [5]: no
- efficacy against Enterococcus faecalis (Enterococcus faecalis): no
- efficacy against Diphtheroids (Diphtheroids): no
- efficacy against Legionella pneumophila (Legionella pneumophila): no
- efficacy against Corynebacterium urealyticum [6]: no
- efficacy against Pseudomonas aeruginosa (Pseudomonas aeruginosa): yes
- efficacy against Shigella boydii (Shigella boydii): yes
- efficacy against Methicillin resistant staph aureus (MRSA) [7]: no
